Reference: article PMC3947168 (Molecular cancer therapeutics, 2013)
Where two headings read alike, the source gives them in different places.

Columns and labels:
[1] = system: T2 cells; experiment: Cell cycle analysis; assay type: cell-based, human; conditions: 24 hour, control 3%
[2] = system: SW1736 cells; experiment: Cell cycle analysis; assay type: cell-based, human; conditions: 24 hour, diluent control 9%
[3] = system: SW1736 cells; experiment: Apoptosis assay; assay type: cell-based, human; conditions: 10 μM, 24 hours, diluent control 10%
[4] = system: SW1736 cells; experiment: MTT cellular proliferation assay, SW1736; assay type: cell-based; conditions: Homo sapiens, SW-1736, read-out: inhibition of cell growth
[5] = system: TL3 cells; experiment: MTT cellular proliferation assay, TL3; assay type: cell-based; conditions: Homo sapiens; for IC50: 72 h, read-out: Growth inhibition (IC50)
[6] = system: HT29 cells; experiment: MTT cellular proliferation assay, HT29; assay type: cell-based; conditions: Homo sapiens, HT-29, 72 h, read-out: Growth inhibition (IC50)
[7] = system: TL3 cells; experiment: Cell cycle analysis; assay type: cell-based, human; conditions: 24 hour, control 2%
[8] = system: thyroid cancer cell lines (SW1736, T2, TL3, BHP2-7); experiment: MTT cellular proliferation assay, responsive thyroid cancer cell lines; assay type: cell-based; conditions: Homo sapiens, SW-1736, 72 h, read-out: IC50 of proliferation
[9] = system: T2 cells; experiment: Apoptosis assay; assay type: cell-based, human; conditions: 10 μM, 24 hours, diluent control 11%
[10] = system: SW1736 human anaplastic thyroid tumor xenografts; experiment: Murine xenograft model; assay type: in vivo, nu/nu athymic mice
[11] = system: MDA-MB-231 cells; experiment: MTT cellular proliferation assay, MDA-MB-231; assay type: cell-based; conditions: Homo sapiens, MDA-MB-231, 72 h, read-out: Growth inhibition (IC50)
[12] = system: p-AKT, p-STAT3, p-ERK, p-4E-BP1; experiment: c-MET downstream signaling; assay type: cell-based, human; conditions: SW1736 and TL3; for levels of p-STAT3 and p-AKT / phosphorylation of ERK and 4E-BP1: 0.1, 1.0, and 10 μM
[13] = system: TL3 cells; experiment: Apoptosis assay; assay type: cell-based, human; conditions: 10 μM, 24 hours, diluent control 10%
[14] = system: PTC cell lines (BHP, B-CPAP and TPC-1); conditions: cited from earlier work
[15] = target: T1, c-MET (Homo sapiens, UniProt P08581); conditions: 10μM; SW1736 and TL3; HGF 20 ng/ml, 10 minutes
[16] = target: c-MET; conditions: read-out: Ki value, c-MET; biochemical analysis; cited from earlier work
[17] = target: T1, c-MET; experiment: HGF induced c-MET phosphorylation; assay type: cell-based
[18] = target: T1, c-MET; conditions: read-out: p-MET inhibition (IC50); HT-29; Report; cited from earlier work
[19] = target: T1, c-MET; experiment: HGF induced c-MET phosphorylation; assay type: cell-based; remark: listed apart in the source
[20] = target: T1, c-MET; experiment: HGF induced c-MET phosphorylation; assay type: cell-based; remark: listed apart in the source
[21] = target: T1, c-MET; experiment: HGF induced c-MET phosphorylation; assay type: cell-based; remark: listed apart in the source
[22] = target: T1, c-MET; conditions: read-out: p-MET inhibition (IC50); MDA-MB-231; Report; cited from earlier work

T1 sequence (P08581 25-1390): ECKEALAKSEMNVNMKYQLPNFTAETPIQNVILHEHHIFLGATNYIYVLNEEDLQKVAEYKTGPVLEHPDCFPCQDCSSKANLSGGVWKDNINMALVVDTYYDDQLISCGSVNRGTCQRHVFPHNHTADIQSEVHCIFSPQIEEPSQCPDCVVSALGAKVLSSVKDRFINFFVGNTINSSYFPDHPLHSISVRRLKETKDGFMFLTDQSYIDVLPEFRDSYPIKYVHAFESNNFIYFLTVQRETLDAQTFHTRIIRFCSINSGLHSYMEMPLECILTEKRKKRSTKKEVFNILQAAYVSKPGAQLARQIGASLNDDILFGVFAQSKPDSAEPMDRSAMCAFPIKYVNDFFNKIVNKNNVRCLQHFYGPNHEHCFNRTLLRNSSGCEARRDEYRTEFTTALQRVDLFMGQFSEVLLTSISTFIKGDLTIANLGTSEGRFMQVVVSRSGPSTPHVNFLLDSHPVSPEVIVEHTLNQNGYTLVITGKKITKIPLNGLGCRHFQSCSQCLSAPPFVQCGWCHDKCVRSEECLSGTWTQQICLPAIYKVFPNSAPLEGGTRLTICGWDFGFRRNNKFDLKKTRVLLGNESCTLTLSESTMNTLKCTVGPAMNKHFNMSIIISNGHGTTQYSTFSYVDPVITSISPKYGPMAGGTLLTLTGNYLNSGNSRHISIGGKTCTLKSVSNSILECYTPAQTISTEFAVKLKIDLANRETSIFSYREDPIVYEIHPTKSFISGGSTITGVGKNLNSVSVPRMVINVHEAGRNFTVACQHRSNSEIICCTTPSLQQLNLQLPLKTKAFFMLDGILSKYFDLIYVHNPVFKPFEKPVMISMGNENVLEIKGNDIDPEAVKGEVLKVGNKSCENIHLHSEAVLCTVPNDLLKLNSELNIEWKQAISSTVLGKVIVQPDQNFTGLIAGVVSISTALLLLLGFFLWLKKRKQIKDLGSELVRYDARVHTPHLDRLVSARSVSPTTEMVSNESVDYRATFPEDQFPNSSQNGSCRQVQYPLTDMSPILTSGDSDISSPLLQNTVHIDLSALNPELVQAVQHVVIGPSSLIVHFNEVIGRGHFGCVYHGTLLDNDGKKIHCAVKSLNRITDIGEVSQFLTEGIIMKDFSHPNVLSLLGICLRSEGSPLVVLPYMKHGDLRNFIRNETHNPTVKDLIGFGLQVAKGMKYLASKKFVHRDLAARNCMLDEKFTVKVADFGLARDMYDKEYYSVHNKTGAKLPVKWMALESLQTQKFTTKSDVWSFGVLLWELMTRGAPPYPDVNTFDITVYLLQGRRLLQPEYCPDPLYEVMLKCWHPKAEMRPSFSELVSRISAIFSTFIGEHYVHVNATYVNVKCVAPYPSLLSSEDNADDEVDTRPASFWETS

C[C@@H](Oc1cc(-c2cnn(C3CCNCC3)c2)cnc1N)c1c(Cl)ccc(F)c1Cl [Crizotinib]
cells in G2/M ([1]; 10 μM): 26% | mean G2/M arrest (cells in G2/M) ([2]; 10 μM): 74% | apoptosis (% Annexin V positive cells) [3]: 15% | inhibition at 1 µM [4]: < 50% | IC50 [5]: 2600 nM | inhibition at 0.1 µM ([5]; read-out: inhibition of cell growth): < 20% | IC50 [6]: 2600 nM | cells in G2/M ([7]; 10 μM): 48% | IC50 [8]: 2000 to 3500 nM | apoptosis (% Annexin V positive cells) [9]: 19% | decrease of mean tumor volume compared to vehicle group ([10]; 50 mg/kg daily oral gavage, day 50): 55.8% | Ki67 positivity in tumor tissue compared to vehicle ([10]; 50 mg/kg, day 50, immunohistochemistry): less | c-MET phosphorylation in tumor tissue compared to vehicle ([10]; 50 mg/kg, tumors dissected 4 hours after drug administration at day 50, western blotting): less | IC50 [11]: 2800 nM | levels of p-STAT3 and p-AKT [12]: potently decreased | phosphorylation of ERK and 4E-BP1 [12]: not significantly altered | apoptosis (% Annexin V positive cells) [13]: 27%

Cc1[nH]c(/C=C2\C(=O)Nc3ccc(S(=O)(=O)Cc4c(Cl)cccc4Cl)cc32)c(C)c1C(=O)N1CCC[C@@H]1CN1CCCC1 [PHA665752]
in vitro growth of PTC cell lines [14]: growth inhibited

Cc1[nH]c(/C=C2\C(=O)Nc3ccc(S(=O)(=O)N(C)c4cccc(Cl)c4)cc32)c(C)c1C(=O)N1CCN(C)CC1 [SU11274]
effect on p-MET [15]: inhibited | effect on p-AKT, p-STAT3 ([12]; 10μM): inhibited

O=C1NC(=O)[C@@H](c2cn3c4c(cccc24)CCC3)[C@@H]1c1c[nH]c2ccccc12 [Tivantinib]
Ki [16]: 355 nM | cells in G2/M ([1]; 1 μM): 45% | IC50 [17]: ~1000 nM | IC50 [18]: 100 to 300 nM | mean G2/M arrest (cells in G2/M) ([2]; 1 μM): 57% | apoptosis (% Annexin V positive cells) [3]: 14% | IC50 [5]: 330 nM | IC50 [6]: 540 nM | cells in G2/M ([7]; 1 μM): 23% | IC50 [19]: > 1000 nM | IC50 [20]: > 1000 nM | IC50 [8]: 100 to 1000 nM | apoptosis (% Annexin V positive cells) [9]: 21% | IC50 [21]: ~1000 nM | IC50 [11]: 650 nM | IC50 [22]: 100 to 300 nM | levels of p-STAT3 and p-AKT [12]: potently decreased | phosphorylation of ERK and 4E-BP1 [12]: not significantly altered | apoptosis (% Annexin V positive cells) [13]: 20%
